Results on 1 compound are retold here after ChEMBL document CHEMBL1141453, “Dissection of the recognition properties of p38 MAP kinase. Determination of the binding mode of a new pyridinyl-heterocycle inhibitor family” (J Med Chem, 2007).

A short description of this experiment: Inhibition of p38 kinase.

The IC50 is the concentration needed to halve the response being measured. A higher IC50 goes with weaker potency. `Fc1ccc(-c2nc3[nH]ncc3c(-c3ccc(F)cc3)c2-c2ccncc2)cc1` gave an IC50 of 161 nM.
